16 compounds from US20220107328A1, “METHODS OF TREATING LIVER DISEASES” (Camp4 Therapeutics Corporation, priority 2018, published 2022) can be followed below.

“And” between values parts separate entries of the source, which are not always exact repeats. Equal entries are not always repeated.

Series [1] concerns PNPLA3 mRNA. Description: qRT-PCR of PNPLA3 mRNA in human primary hepatic stellate cells. Particulars: for Relative PNPLA3 mRNA expression: stellate cells, Table 37; for Relative PNPLA3 nRNA expression in Stellate cells: 16 hours; for Primary Stellate cells PNPLA3 (fold change in mRNA expression): 3 μM. The series is classed as cell-based.
The test system of series [2] is PNPLA3 mRNA. Kind of series: qRT-PCR of PNPLA3 mRNA in compound-treated primary human hepatocytes. Particulars: for Relative PNLPA3 mRNA expression in HU4282 cells: Lonza HU4282 hepatocytes; for Relative PNPLA3 mRNA expression in Yecuris RMG cells: Yecuris RMG hepatocytes; for Relative PNPLA3 mRNA levels: 10 μM, human hepatocytes, mean of three replicates ± standard deviation; for Relative PINPLA3 mRNA: hepatocytes. Background: Quantitative PCR measures a nucleic acid by following its amplification.

In series [3] the test system is COL1A1 mRNA. Description: qRT-PCR of COL1A1 mRNA in human primary hepatic stellate cells. The series is classed as cell-based. Conditions: 3 μM, relative to GAPDH.
In series [4] the test system is PCSK9 mRNA. Description: qRT-PCR of PCSK9 mRNA in primary hepatocytes. The series is classed as cell-based, human. Conditions: donor 4178, 3 μM, relative to GUSB.
Setting [5] is: 3.3 uM, 16 hours, relative to GUSB.
Where [6] appears, read: 10 uM, 16 hours, relative to GUSB.
The mark [7] stands for this setting: Syk pathway inhibitors, normalized to B2M.

With `c1cc(-c2cnn3cc(-c4ccc(N5CCNCC5)cc4)cnc23)c2cccnc2c1` [LDN212854, LDN-212854], the “Relative PNPLA3 mRNA expression” value stood at 0.92 ± 0.22 in series [1] (0.01 uM); 1.02 ± 0.16 in series [1] (0.1 uM); 0.67 ± 0.12 in series [1] (1 uM); 7.43 ± 3.91 in series [1] (10 uM); 1.095 ± 0.1332 in series [2] (primary human hepatocytes, 3.3 uM, Table 35); 0.9339 ± 0.04093 in series [2] (primary human hepatocytes, 10 uM, Table 35). The “PNPLA3 mRNA, TGFβ and BMP pathway inhibitors (in words)” value in series [2] (primary human hepatocytes) is listed as “did not decrease PNPLA3 mRNA in primary human hepatocytes”.

`N#CCNC(=O)c1ccc(-c2ccnc(Nc3ccc(N4CCOCC4=O)cc3)n2)cc1` [M21]: the “PNPLA3 mRNA expression (in words)” value in series [1] (stellate cells ST1 and ST8, 16 hours, relative to GAPDH) is listed as “reduced PNPLA3 mRNA expression, with the most significant decrease after treatment with 3.3 μM M21”; in series [2] (Yecuris RMG and Lonza HU4282 hepatocytes, 16 hours, relative to GUSB), “reduced PNPLA3 mRNA expression in a dose dependent manner”. Also, the “Relative PNPLA3 nRNA expression in Stellate cells” value in series [1] (stellate cells donor ST1, 3.3 uM, relative to GAPDH) was found to be 0.26 ± 0.11; in series [1] (stellate cells donor ST1, 10 uM, relative to GAPDH), 0.54 ± 0.10; in series [1] (stellate cells donor ST8, 3.3 uM, relative to GAPDH), 0.31 ± 0.01; in series [1] (stellate cells donor ST8, 10 uM, relative to GAPDH) it was 0.49 ± 0.05. Besides, the “Relative PNLPA3 mRNA expression in HU4282 cells” value in series [2] (setting [5]) was 0.213 ± 0.028; in series [2] (setting [6]), 0.138 ± 0.015. The “Relative PNPLA3 mRNA expression in Yecuris RMG cells” value in series [2] (setting [5]) worked out at 0.910 ± 0.068; in series [2] (setting [6]), 0.165 ± 0.018.

On to `CNS(=O)(=O)C[C@H]1CC[C@H](N(C)c2ncnc3[nH]ccc23)CC1` [Oclacitinib], for which the “Relative PNPLA3 mRNA levels” value in series [2] (JAK inhibitors, qRT-PCR) is listed as 0.56 ± 0.03. The “PNPLA3 expression (in words)” value in series [2] (validation in human hepatocytes from a second donor, qRT-PCR) is “efficient downregulation of PNPLA3”.

As to `C=CC(=O)N1C[C@H](COc2nc(Nc3cnn(C)c3)nc3[nH]cc(Cl)c23)[C@@H](OC)C1` [PF-06459988], the figures for the “Relative PINPLA3 mRNA” value in series [2] (1 uM) and in series [2] (10 uM) were 0.965 and 0.398, respectively.

`COc1ccc(COc2cc3oc(=O)c4cc(C(C)O)ccc4c3cc2OC)cc1` (stereo not drawn) [Palomid 529 (P529)]: the “Primary Stellate cells COL1A1 (fold change in mRNA expression)” value in series [3] is 1.10. Further, in series [4], the “Primary Hepatocytes 4178 PCSK9 (fold change in mRNA expression)” value stood at 1.05. Also, the “Primary Stellate cells PNPLA3 (fold change in mRNA expression)” value in series [1] (relative to GAPDH) came to 0.97.

For the compound `NCCC(O)(P(=O)(O)O)P(=O)(O)O` [Pamidronate], the “Relative PINPLA3 mRNA” value in series [2] (10 uM) came to 0.2.

With `C/C=C1\NC(=O)[C@H]2CSSCC/C=C/[C@H](CC(=O)N[C@H](C(C)C)C(=O)N2)OC(=O)[C@H](C(C)C)NC1=O` [Romidepsin (FK228, Depsipeptide)], the “Relative PINPLA3 mRNA” value in series [2] (10 uM) was 0.3.

In the case of `N#CC[C@H](C1CCCC1)n1cc(-c2ncnc3[nH]ccc23)cn1` [Ruxolitinib], the “Relative PNPLA3 mRNA levels” value in series [2] (JAK inhibitors, qRT-PCR) was found to be 0.89 ± 0.17.

As to `CN1C/C=C/CCOc2cccc(c2)-c2ccnc(n2)Nc2cccc(c2)C1` [SB1317], the “Relative PINPLA3 mRNA” value in series [2] (1 uM) turned out to be 0.400; in series [2] (10 uM) it was 0.413.

In the case of `CC1(C)CN(C(=O)c2ccc(-c3cccc4nc(NC(=O)C5CC5)nn34)cc2)C1` [Solcitinib], in series [2] (JAK inhibitors, qRT-PCR), the “Relative PNPLA3 mRNA levels” value was 1.10 ± 0.01.

In the case of `Cc1cccc(-c2[nH]c(CNc3ccccc3F)nc2-c2ccc3ncnn3c2)n1` [TEW-7197], the “Relative PNPLA3 mRNA expression” value was determined as 1.219 ± 0.186 in series [2] (primary human hepatocytes, 0.04 uM, Table 34); 0.822 ± 0.152 in series [2] (primary human hepatocytes, 0.12 uM, Table 34); 0.613 ± 0.035 in series [2] (primary human hepatocytes, 0.37 uM, Table 34); 0.560 ± 0.134 in series [2] (primary human hepatocytes, 3.3 uM, Table 34).

`Nc1nc(N)c2nc(-c3cccc(O)c3)c(-c3cccc(O)c3)nc2n1` [TG100-115]: the “Primary Stellate cells COL1A1 (fold change in mRNA expression)” value in series [3] is on record as 1.11. In addition, the “Primary Hepatocytes 4178 PCSK9 (fold change in mRNA expression)” value in series [4] is 0.69. The “Primary Stellate cells PNPLA3 (fold change in mRNA expression)” value in series [1] (relative to GAPDH) came to 1.07.

As for `CC[C@@H]1CN(C(=O)NCC(F)(F)F)C[C@@H]1c1cnc2cnc3[nH]ccc3n12` [Upadacitinib], the “Relative PNPLA3 mRNA levels” value in series [2] (JAK inhibitors, qRT-PCR) is recorded as 0.93 ± 0.15.

As for `c1cn2cc(-c3ccc4cn[nH]c4c3)nc(Nc3ccc(N4CCOCC4)cc3)c2n1` [entospletinib], the “Relative PNPLA3 mRNA levels” value in series [2] (setting [7]) is reported as 0.67 ± 0.05.

On to `COC(=O)C1=C(C#N)NC(C)=C(C(=O)OC(C)C)C1c1cccc([N+](=O)[O-])c1` (stereo not drawn) [nilvadipine], for which the “Relative PNPLA3 mRNA levels” value in series [2] (setting [7]) is 0.61 ± 0.08.

For TGFB1, the “Relative PNPLA3 mRNA expression” value in series [1] (0.001 ug/ML) was 0.93 ± 0.11 and 1.50 ± 0.17; in series [1] (0.01 ug/ML), 2.35 ± 0.39 and 1.40 ± 0.10.
